Experimental findings from ChEMBL document CHEMBL1144007, “Activity of Mannich bases of 7-hydroxycoumarin against Flaviviridae” (Bioorg Med Chem, 2008) are described below.

Activity calls are given as the source filed them. No rule for the calls is given here.

The subject of series [1] is Human immunodeficiency virus 1. Put plainly: Antiviral activity against HIV1. The series is classed as functional, organism-based.
The subject of series [2] is Respiratory syncytial virus. Put plainly: Antiviral activity against RSV A2 in VERO76 cells assessed as reduction of plaque number by MTT method. It is filed as functional, organism-based. Particulars: human respiratory syncytial virus, A2, Vero 76. Background: Formazan colour is commonly taken as a measure of viable cells.
A further series deals with Vaccinia virus. As to the kind of experiment: Antiviral activity against vaccinia virus. It is filed as functional, organism-based. Particulars: Orthopoxvirus vaccinia.
The subject of a further series is Reovirus sp. As to the kind of experiment: Antiviral activity against Reovirus. It is filed as functional, organism-based.
Series [3] in a line: Cytotoxicity against human MT4 cells after 96 hrs by MTT method. The series is classed as cell-based.
For series [4], the system named is Vesicular stomatitis virus. As to the kind of experiment: Antiviral activity against vesicular stomatitis virus. The series is classed as functional, organism-based.
In series [5] the test system is Bovine viral diarrhea virus 1. As to the kind of experiment: Antiviral activity against BVDV NADL in MDBK cells assessed as protection from virus-induced cytopathogenicity by MTT method. It is filed as functional, organism-based. Particulars: Bovine viral diarrhea virus isolates and strains.
The next series deals with Poliovirus 1. Put plainly: Antiviral activity against Human poliovirus 1 Sabin. The series is classed as functional.
A further series deals with Yellow fever virus. As to the kind of experiment: Antiviral activity against YFV in BHK cells assessed as protection from virus-induced cytopathogenicity by MTT method. The series is classed as functional, organism-based.

On to `CCCOc1ccc2c(C)cc(=O)oc2c1CN1CCN(C/C=C/c2ccccc2)CC1`, for which the result (in series [1]; in the series with Vaccinia virus; in the series on Reovirus sp.; in series [4]; in the series with Poliovirus 1) was inactive. In addition, the EC50 (as a rule, the concentration that produces a half-maximal response) was above 100 µM in series [2], 27 µM in [5] and above 53 µM in the series on Yellow fever virus. The half-maximal cytotoxic concentration (CC50) (in general, the concentration at which the toxic effect on the cells reaches its halfway point) at 96 h in [3] is above 100 µM.

For the compound `CC(=O)Oc1ccc2c(C)cc(=O)oc2c1Cc1c(C)[nH]c2ccccc12`, the outcome (in series [1]; with Vaccinia virus; in the series with Reovirus sp.; in series [4]; with Poliovirus 1) was inactive. The EC50 was 25 µM in [2], above 100 µM in series [5] and above 100 µM with Yellow fever virus. The CC50 at 96 h in series [3] turned out to be 41 µM.

With `CCC(=O)Oc1ccc2c(C)cc(=O)oc2c1Cc1c(C)[nH]c2ccccc12`, the result (in series [1]; in the series on Vaccinia virus; in the series on Reovirus sp.; in [4]; in the series with Poliovirus 1) was inactive. Moreover, the EC50 in [2] was 45 µM; in [5], above 87 µM; with Yellow fever virus it was above 100 µM. Moreover, in series [3], the midpoint of cytotoxicity, the CC50 at 96 h, lay at 31 µM.

On to `O=c1cnn([C@@H]2O[C@H](CO)[C@@H](O)[C@H]2O)c(=O)[nH]1` [6-AZAURIDINE], for which the result (in series [1]; in the series with Vaccinia virus; with Reovirus sp.; in series [4]; with Poliovirus 1) was inactive. Also, the results for the EC50 (in series [2]; in series [5]; with Yellow fever virus) were 1 µM, above 25 µM and 25 µM, respectively. The compound also returned a CC50 at 96 h in [3] of 0.2 µM.

Take `COCCN(CCOC)c1oc2ccc3ccccc3c2c(=O)c1Cc1c(OC(C)=O)ccc2ccc(=O)oc12`: the result (in series [1]; with Vaccinia virus; with Reovirus sp.; in series [4]; in the series on Poliovirus 1) was inactive. In addition, the figures for the EC50 (in series [2]; in series [5]; with Yellow fever virus) were 5 µM, 78 µM and 100 µM, respectively. The CC50 at 96 h in [3] was above 100 µM.

For `COc1ccc2c(=O)c(Cc3c(O)ccc4ccc(=O)oc34)c(N3CCCC3)oc2c1`, the outcome (in series [1]; in the series on Vaccinia virus; with Reovirus sp.; in [4]; in the series on Poliovirus 1) was inactive. Besides, the EC50 (in series [2]; in series [5]; in the series with Yellow fever virus) was above 100 µM throughout. Further, the CC50 at 96 h in [3] was above 100 µM.

On to `CCOC(=O)N1CCN(Cc2c(OC(=O)c3ccccc3)ccc3ccc(=O)oc23)CC1`, for which the outcome (in series [1]; in the series on Vaccinia virus; with Reovirus sp.; in [4]; in the series with Poliovirus 1) was inactive. Also, the EC50 was 90 µM in series [2], above 100 µM in series [5] and above 100 µM in the series with Yellow fever virus. The compound further registered a CC50 at 96 h in series [3] above 100 µM.

As for `O=C(Oc1ccc2ccc(=O)oc2c1CN1CCN(Cc2ccc3c(c2)OCO3)CC1)c1ccccc1`, the outcome (in series [1]; with Vaccinia virus; with Reovirus sp.; in [4]; with Poliovirus 1) was inactive. Moreover, the EC50 was 85 µM in series [2], 77 µM in [5] and above 100 µM in the series with Yellow fever virus. In series [3], this compound registered a CC50 at 96 h of 74 µM.

With `Cc1[nH]c2ccccc2c1Cc1c(OC(=O)CCCC(=O)O)ccc2ccc(=O)oc12`, the outcome (in series [1]; in the series with Vaccinia virus; with Reovirus sp.; in series [4]; with Poliovirus 1) was inactive. The EC50 in [2] was above 92 µM; in series [5], above 67 µM; in the series on Yellow fever virus it was above 100 µM. The CC50 at 96 h in series [3] is 27 µM.

As for `CCCOc1ccc2c(C)cc(=O)oc2c1CN1CCN(c2ccc(C(C)=O)cc2)CC1`, the result (in series [1]; with Vaccinia virus; with Reovirus sp.; in [4]; with Poliovirus 1) was inactive. Further, the EC50 is above 100 µM in [2], 8 µM in [5] and above 100 µM in the series on Yellow fever virus. In [3], this compound came in with a CC50 at 96 h of 25 µM.

In the case of `CCCCCCCCOc1ccc2c(=O)c(Cc3c(OC(C)=O)ccc4c(C)cc(=O)oc34)c(N(CC)CC)oc2c1`, the result (in series [1]; in the series on Vaccinia virus; with Reovirus sp.; in series [4]; with Poliovirus 1) was inactive. Also, the EC50 (in series [2]; in series [5]; in the series on Yellow fever virus) was above 100 µM in each case. In series [3], this compound had a CC50 at 96 h above 100 µM.

For the compound `Cc1cc(=O)oc2c(CN3CCN(C/C=C/c4ccccc4)CC3)c(OC(=O)c3ccccc3)ccc12`, the result (in series [1]; in the series with Vaccinia virus; in the series with Reovirus sp.; in [4]; in the series on Poliovirus 1) was inactive. In addition, the figures for the EC50 (in series [2]; in series [5]; with Yellow fever virus) were above 80 µM, 19 µM and above 100 µM, respectively. In series [3], the CC50 at 96 h was 45 µM.

On to `CCOC(=O)N1CCN(Cc2c(O)ccc3c(C)cc(=O)oc23)CC1`, for which the outcome (in series [1]; with Vaccinia virus; with Reovirus sp.; in series [4]; with Poliovirus 1) was inactive. Besides, the EC50 is at least 100 µM in series [2], above 100 µM in series [5] and above 100 µM in the series with Yellow fever virus. The compound further registered a CC50 at 96 h in [3] above 100 µM.

Regarding `COc1ccc2c(=O)c(Cc3c(OC(C)=O)ccc4ccc(=O)oc34)c(N3CCCC3)oc2c1`, the result (in series [1]; in the series on Vaccinia virus; in the series on Reovirus sp.; in series [4]; in the series on Poliovirus 1) was inactive. The EC50 (in series [2]; in series [5]; with Yellow fever virus) was above 100 µM each time. In series [3], this compound came in with a half-maximal cytotoxic concentration (CC50) at 96 h above 100 µM.

With `Cc1cc(=O)oc2c(CN3CCN(C)CC3)c(OC(=O)c3ccccc3)ccc12`, the result (in [1]; in the series on Vaccinia virus; in the series with Reovirus sp.; in [4]; with Poliovirus 1) was inactive. Besides, the EC50 (in [2]; in series [5]; with Yellow fever virus) was above 100 µM each time. In addition, the CC50 at 96 h in series [3] was above 100 µM.
